From article PMC7617869, “Molecular glues that inhibit deubiquitylase activity and inflammatory signaling” (Nature Structural & Molecular Biology, 2025)
Several values for one entry are separate records, joined by “and”; a condition that tells them apart may be missing. Equal entries are not always repeated. Where two headings read alike, the source gives them in different places.

Columns and labels:
BRISC = target: T1, BRISC (Homo sapiens, UniProt P46736+Q15018+Q9NXR7); experiment: BRISC DUB activity assay (IQF K63-linked diubiquitin); assay type: biochemical
T1 construct: made in house; host or cells: Spodoptera frugiperda (Sf9) insect cells, MultiBac
Procedure, shortened: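 Cleavage of 50 nM IQF K63-linked diubiquitin was followed by fluorescence (ex 544 nm, em 575 nm) every minute for 30 min at 30 °C in 50 mM HEPES–NaOH pH 7.0, 100 mM NaCl, 0.1 mg ml^−1 BSA, 1 mM DTT, 0.03% Brij-35. BRISC WT and mutants were at 1 nM final. IC50 values came from variable-slope fits of initial velocity.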

[1] = test system: NF-κB pathway in THP-1 cells; experiment: THP-1 NF-κB pathway SEAP reporter, lipopolysaccharide stimulation; assay type: cell-based, human; conditions: LPS + compound, three replicates
THP-1 cells = experiment: THP-1 live cell percentage; assay type: cell-based; conditions: THP-1, hIFNα2 25 ng/mL, 4 μM compound, 16 h
[2] = test system: IFNAR1 surface levels in THP-1 cells; experiment: THP-1 IFNAR1 surface levels (FACS); assay type: cell-based, human
[3] = test system: CXCL10 secretion in healthy PBMCs; experiment: Healthy PBMC CXCL10 ELISA, IFNα2-stimulated; assay type: cell-based, human
Experimental: PBMCs in vitro experiments
Peripheral blood mononuclear cells (PBMCs) from healthy and SSc donors were separated using density gradient method (Leucosep™, Greiner Bio-One International) from EDTA anticoagulated peripheral blood; isolated cells were washed twice by PBS. PBMCs were then incubated in RPMI1640 […]
For healthy PBMCs, cells were stimulated with 20 ng/mL of IFN (+/- compounds or DMSO). For SSc PBMCs, cells were in basal conditions with no additional IFN stimulation. Cells were centrifuged at 300 g for 10 minutes. Supernatant was removed and subjected to R&D Systems DY266 Human CXCL10/IP-10 DuoSet ELISA (Biotechne) in duplicates, according to manufacturer’s guidance. Concentration of CXCL10 was determined according to a 4-parameter

For `O=C(NC1CCNCC1)c1nn(C(=O)c2c(Cl)cccc2Cl)cc1NC(=O)c1c(Cl)cccc1Cl` [JMS-175-2], the IC50 (BRISC; 32-point dose-response, biphasic fit, read-out: IC50(1), biphasic curve) was 1.1 µM, the IC50 (BRISC; 32-point dose-response, biphasic fit, read-out: IC50(2), biphasic curve) was 0.168 µM and the “Normalised V0” value (BRISC; Fig. 1e, BRISC, JMS-175-2 1.9996 μM) was 0.6565 and 0.4518. For the same molecule, the “Normalised V0” value (BRISC; Fig. 1e, BRISC, JMS-175-2 5.19739 μM) was 0.283 and 0.275 and 0.3465, the “Normalised V0” value (BRISC; Fig. 1d, log[compound (μM)] 0.0000, listed as H20) was 0.6438 and 0.8274 and 0.7444 and the “Normalised V0” value (BRISC; Fig. 1d, log[compound (μM)] 0.3979, listed as H20) was 0.5783 and 0.5268 and 0.4841. The “Normalised V0” value (BRISC; Fig. 1d, log[compound (μM)] 0.6990, listed as H20) was 0.3795 and 0.3824 and 0.3190, the “Normalised V0” value (BRISC; Fig. 1d, log[compound (μM)] 1.0000, listed as H20) was 0.2528 and 0.2942 and 0.2669 and the “Normalised V0” value (BRISC; Fig. 1d, log[compound (μM)] 1.4771, listed as H20) was 0.1351 and 0.1861 and 0.1726. The “Normalised V0” value (BRISC; Fig. 1d, log[compound (μM)] 1.6990, listed as H20) was 0.1117 and 0.1567 and 0.1200, the “Normalised V0” value (BRISC; Fig. 1d, log[compound (μM)] -0.3010, listed as H20) was 0.9255 and 0.9030 and the “Normalised V0” value (BRISC; Fig. 1d, log[compound (μM)] -1.0000, listed as H20) was 0.9975 and 1.0280 and 1.0210. The “Normalised V0” value (BRISC; Fig. 1d, log[compound (μM)] -2.0000, listed as H20) was 1.0150 and 0.9155 and 1.0690, the IC50 (BRISC; IQF K63-linked diubiquitin substrate, read-out: IC50, inhibition of BRISC DUB activity) was 3.8 µM and the “Normalised V0” value (BRISC; [Inhibitor] 0.013 μM, replicate columns) was 0.9583 and 0.7384 and 1.046 and 0.967 and 0.8595 and 0.8402. For the same molecule, the “Normalised V0” value (BRISC; [Inhibitor] 0.02 μM, replicate columns) was 0.8771 and 0.8197 and 1.004, the “Normalised V0” value (BRISC; [Inhibitor] 0.0399999 μM, replicate columns) was 1.299 and 0.7892 and 1.03 and the “Normalised V0” value (BRISC; [Inhibitor] 0.0599997 μM, replicate columns) was 0.839 and 0.6819 and 0.9433. For the same molecule, the “Normalised V0” value (BRISC; [Inhibitor] 0.0799994 μM, replicate columns) was 0.9097 and 0.9012 and 0.9628, the “Normalised V0” value (BRISC; [Inhibitor] 0.119998 μM, replicate columns) was 1.013 and 0.9179 and 1.054 and the “Normalised V0” value (BRISC; [Inhibitor] 0.199996 μM, replicate columns) was 1.253 and 0.7708 and 1.101. For the same molecule, the “Normalised V0” value (BRISC; [Inhibitor] 0.499975 μM, replicate columns) was 0.5936 and 0.7022 and 0.9756, the “Normalised V0” value (BRISC; [Inhibitor] 0.799936 μM, replicate columns) was 0.9296 and 0.6017 and 0.8518 and the “Normalised V0” value (BRISC; [Inhibitor] 1.25984 μM, replicate columns) was 1.139 and 0.471 and 0.8066. For the same molecule, the “Normalised V0” value (BRISC; [Inhibitor] 1.9996 μM, replicate columns) was 0.6565 and 0.4518 and 0.6268, the “Normalised V0” value (BRISC; [Inhibitor] 3.159 μM, replicate columns) was 0.6624 and 0.3061 and 0.5597 and the “Normalised V0” value (BRISC; [Inhibitor] 5.19739 μM, replicate columns) was 0.283 and 0.275 and 0.3465. For the same molecule, the “Normalised V0” value (BRISC; [Inhibitor] 7.99364 μM, replicate columns) was 0.6473 and 0.2184 and 0.4215, the “Normalised V0” value (BRISC; [Inhibitor] 12.7839 μM, replicate columns) was 0.4135 and 0.1798 and 0.2477 and the “Normalised V0” value (BRISC; [Inhibitor] 19.96 μM, replicate columns) was 0.3284 and 0.5166 and 0.3249. For the same molecule, the “Normalised V0” value (BRISC; [Inhibitor] 31.4999 μM, replicate columns) was 0.6187 and 0.1303 and 0.1533, the “Normalised V0” value (BRISC; [Inhibitor] 50.147 μM, replicate columns) was 0.2621 and 0.1377 and 0.1733 and the “Normalised V0” value (BRISC; [Inhibitor] 79.7601 μM, replicate columns) was 0.2164 and 0.1356 and 0.1726. The “Normalised V0” value (BRISC; [Inhibitor] 125.99 μM, replicate columns) was 0.1111 and 0.1816 and 0.02719, the “Normalised V0” value (BRISC; [Inhibitor] 199.922 μM, replicate columns) was -0.03072 and 0.01018 and -0.03521 and the “Normalised velocity (V0)” value (BRISC; inhibitor 0.000794328 μM) was 1. The “Normalised velocity (V0)” value (BRISC; inhibitor 0.00125892 μM) was 0.9579 and 1.034, the “Normalised velocity (V0)” value (BRISC; inhibitor 0.00199526 μM) was 1.01 and 0.9969 and the “Normalised velocity (V0)” value (BRISC; inhibitor 0.00316228 μM) was 0.9962 and 1.154. For the same molecule, the “Normalised velocity (V0)” value (BRISC; inhibitor 0.00501187 μM) was 0.9932 and 1.028, the “Normalised velocity (V0)” value (BRISC; inhibitor 0.00794328 μM) was 1.087 and 1.121 and the “normalised V0, Mean” value (BRISC; inhibitor 0.01 μM) was 1. For the same molecule, the “Normalised velocity (V0)” value (BRISC; inhibitor 0.0125893 μM) was 1.059 and 1.016, the “Normalised velocity (V0)” value (BRISC; inhibitor 0.0199526 μM) was 1.08 and 1.097 and the “Normalised velocity (V0)” value (BRISC; inhibitor 0.0316228 μM) was 1.03 and 1.101. For the same molecule, the “Normalised velocity (V0)” value (BRISC; inhibitor 0.0501187 μM) was 1.036 and 1.109, the “normalised V0, Mean” value (BRISC; inhibitor 0.0781 μM) was 0.9992 and the “Normalised velocity (V0)” value (BRISC; inhibitor 0.0794328 μM) was 1.026 and 1.083. The “Normalised velocity (V0)” value (BRISC; inhibitor 0.125893 μM) was 0.8526 and 0.9544, the “Normalised velocity (V0)” value (BRISC; inhibitor 0.199526 μM) was 0.6481 and 0.8082 and the “Normalised velocity (V0)” value (BRISC; inhibitor 0.316228 μM) was 0.694 and 0.5793. The “Normalised velocity (V0)” value (BRISC; inhibitor 0.398107 μM) was 0.5098 and 0.5762, the “Normalised velocity (V0)” value (BRISC; inhibitor 0.630957 μM) was 0.4827 and 0.4555 and the “normalised V0, Mean” value (BRISC; inhibitor 0.7812 μM) was 0.7414. The “Normalised velocity (V0)” value (BRISC; inhibitor 1 μM) was 0.3835 and 0.2691, the “normalised V0, Mean” value (BRISC; inhibitor 1.562 μM) was 0.5385 and the “Normalised velocity (V0)” value (BRISC; inhibitor 1.58489 μM) was 0.2248 and 0.2189. The “Normalised velocity (V0)” value (BRISC; inhibitor 2.51189 μM) was 0.2301 and 0.1988, the “normalised V0, Mean” value (BRISC; inhibitor 3.12 μM) was 0.384 and the “Normalised velocity (V0)” value (BRISC; inhibitor 3.98107 μM) was 0.1293 and 0.1933. The “normalised V0, Mean” value (BRISC; inhibitor 6.25 μM) was 0.2986, the “Normalised velocity (V0)” value (BRISC; inhibitor 6.30957 μM) was 0.09323 and 0.07115 and the “normalised V0, Mean” value (BRISC; inhibitor 12.3 μM) was 0.2014. For the same molecule, the “Normalised velocity (V0)” value (BRISC; inhibitor 15.8489 μM) was 0.009774 and 0.01547, the “normalised V0, Mean” value (BRISC; inhibitor 24.54 μM) was 0.1684 and the “Normalised velocity (V0)” value (BRISC; inhibitor 25.1189 μM) was 0. The “Normalised velocity (V0)” value (BRISC; inhibitor 39.8107 μM) was 0, the “normalised V0, Mean” value (BRISC; inhibitor 48.9 μM) was 0.1492 and the “Normalised velocity (V0)” value (BRISC; inhibitor 63.0957 μM) was 0. For the same molecule, the “Normalised velocity (V0)” value (BRISC; inhibitor 100 μM) was 0, the “normalised V0, Mean” value (BRISC; inhibitor 100 μM) was 0.04999 and the “normalised V0, Mean” value (BRISC; inhibitor 199.5 μM) was 0.004784. For the same molecule, the “NF-κB SEAP reporter signal” value [1] was 1.156 and 1.103 and 1.152, the “percentage of live cells” value (THP-1 cells) was 98.05% and the “IFNAR1 surface levels (Fig. 5h)” value ([2]; IFN + compound, No IFN = 100) was 48.4567 and 45.7565 and 33.0649. For the same molecule, the IFNAR1 surface levels ([2]; THP-1, hIFNα2 25 ng/ml, 4 μM, 16 h) was “reduction in IFNAR1 surface levels”, the “CXCL10, healthy donor PBMCs (Fig. 6c)” value ([3]; Healthy donor HC1) was 63.2851 and the “CXCL10, healthy donor PBMCs (Fig. 6c)” value ([3]; Healthy donor HC2) was 45.1027. The “CXCL10, healthy donor PBMCs (Fig. 6c)” value ([3]; Healthy donor HC3) was 43.5189.
